From patent US5610171A, “Inhibition of metastasis in patients having cancer with pyridyloxazole-2-ones” (Merrell Pharmaceuticals Inc., priority 1995, dated 1997)
pIC50: −log10 of the molar value. Like-named read-outs stand apart in the source and are kept apart here.

Assays:
cytosolic PKC = assay: Inhibition of B16F1 cytosolic PKC activity; format: biochemical, murine; settings: B16F1 cytosol fraction
Protocol: (§1) Protein Kinase C Preparation
(§2) Cytostolic and membrane-associated PKC was prepared as described in Thomas, T. P., Gopalakrishna, R. and Anderson, W. B. Hormone- and tumor promoter-induced activation of membrane association of protein kinase C in intact cells, Methodsin Enzymology, 141: 399-411, 1987. Sub-confluent B16F1 cultures (4×10^7 cells total) were washed twice with phosphate buffered saline (PBS), pH 7.2 and then twice with buffer A (20 mM Tris, pH 7.5, 2 mM EDTA, 0.5 mM EGTA, […], 2 mM phenylmethylsulfonyl fluoride (PMSF), and 2 μg/ml leupeptin). Cells were scraped from the plates in buffer A, homogenized (40 strokes) and sedimented by centrifugation for 1 hour at 100,000 g. The cytosol was stored on ice while the particulate fraction was washed with buffer B (20 mM Tris, pH 7.2, 2 mM EDTA, 0.5 mM EGTA, and 2 mM (PMSF). The membranes were resuspended with buffer B and homogenized with 10 strokes. Nonidet P-40 (1% final concentration) was added and the mixture was incubated for 30 minutes at 4° C. in a rotating mixer. Nonsolubilized material was removed by centrifugation for 10 minutes at 1400 g. Cytostolic and membrane-bound PKC was partially purified by chromatography over 1 ml columns of DE-52 (Whatman) equilibrated with buffer B. The enzyme was applied to the column and washed with 2×3 ml buffer B. Elution of PKC was then effected by the addition of 2 ml buffer B containing 100 mM NaCl.
(§3) PKC was quantitated as described in Thomas et al., ibid. The assay contained 20 mM Tris (pH 7.5), 0.75 mM CaCl, 10 mM magnesium acetate, […] histone III-S, 0.25 μg/ml leupeptin, 100 μM [gamma-^32 p]-ATP (120 cpm/pmol), 0.96 μg/ml phosphatidylserine, and 0.0064 μg/ml 1,2-diolein in a total assay volume of 250 μl. Blanks contained no calcium or phospholipids. Incubation was for 5 minutes at 30° C. at which point the reaction was terminated by the addition of 1 ml 25% trichloroacetic acid (TCA). Samples were applied to Whatman GF/B filters, the tube rinsed twice with 5% TCA and the filter then washed 5 times with 5% TCA.
^a Subconfluent B16F1 cells were harvested and cytosol and membrane
fractions prepared as described in Materials and Methods. PKC activity wa
then measured in the presence of the drugs listed.

membrane-associated PKC = assay: Inhibition of B16F1 membrane-associated PKC activity; format: biochemical, murine; settings: B16F1 membrane fraction
Protocol: as §1, §2, §3

B16F1 cells = assay: Experimental lung metastasis assay (B16F1 cells treated in culture, then injected intravenously into C57BL/6 mice); format: in vivo, murine (C57BL/6 mice); settings: Mus musculus, B16-F1, iv, read-out: B16 Metastasis IC50
Protocol: Experimental Metastasis Assay
Sub-confluent B16F1 cells were harvested by washing with HBSS followed by trypsinization for 1 minute. The cells were sedimented by centrifugation (250 g, 5 minutes) and washed twice with HBSS. Viable cells were counted after dilution with trypan blue. A single-cell suspension of 10^5 cells in 0.2 ml HBSS was injected intravenously into 16-18 C57BL/6 mice via the tail vein. Three weeks later, the number of metastatic foci in the lung were counted.

[1] = tested on: SP1 mouse mammary adenocarcinoma cells; settings: cells normally do not metastasize; cited from earlier work
[2] = tested on: B16F1 cells / human umbilical vein endothelial cells (HUVEC); assay: Adhesion of B16F1 melanoma cells to endothelial cells (HUVEC); format: cell-based, murine B16F1 cells; human HUVEC
Protocol: Adhesion of Tumor Cells to Endothelial Cells
Round 15 mm Thermanox tissue culture cover slips from Lux were placed in Corning 12-well, 22 mm diameter tissue culture clusters. HUVEC (2×10^6) were added to each well and grown to confluency. Sub-confluent B16F1 cells were labeled with 1 μCi/ml [^3 H]-thymidine (New England Nuclear, 78.5 Ci/mmol) for 24 hours at 37° C.
In preparation for the adhesion assay, the tissue culture wells containing either HUVEC or no cells were blocked with MEM containing 20 mM HEPES and 1% BSA for 1 hour at 37° C. B16F1 cells were removed from the flasks as described above for adhesion to basement membrane proteins and diluted to a density of 2×10^5 viable cells/ml in MEM (viability determined by trypan blue exclusion).
Blocking solution was aspirated from the wells and 1 ml of cells were added per well and incubated at 37° C. Nonadherent cells were washed from coverslips as described in Wright, P. S., Cross-Doersen, D., McCann, P. P. and Bitonti, A. J., Plasmodium falciparum: a rapid assay for cytoadherence of [^3 H]-hypoxanthine-labeled infected erythrocytes to human melanoma cells, Exp. Parasitol., 71: 346-349, 1990. Coverslips were retrieved from the well with forceps and dipped 10 times into a beaker of 100 ml MEM. Coverslips were placed into scintillation vials and counted in 10 ml Beckman Ready Protein.
B16F1 cells were treated with 4-propyl-5(4-pyridinyl)-
(3H)-oxazolone for 24 hours at 37° C. Cells were then
harvested and added to wells containing confluent HUVEC
cells and incubated for the time indicated at 37° C. Details
are given in Materials and Methods.

collagen IV = assay: Adhesion of B16F1 cells to collagen IV; format: cell-based; settings: 24 hours
Protocol: (§4) Adhesion of B16F1 Cells to Basement Membrane Proteins
(§5) Adhesion proteins (2 μg/well) were coated onto Immulon I Removawells from Dynatech and incubated for 1 hour at 37° C. The wells were then blocked for 1 hour with 400 μl PBS, pH 7.2 containing 1% bovine serum albumin (BSA) at 37° C. Prior to addition of the cell suspension, the blocking solution was aspirated.
(§6) Sub-confluent cells were washed twice with HBSS and removed form flasks by incubation for 10 minutes at 37° C. with PBS (pH 7.2), 2 mM EDTA, and 1% BSA. The cells were washed twice with MEM containing 20 mM HEPES and 0.1% BSA and resuspended in the same medium to give a cell density of […].
(§7) Cells were added to wells in 50 μl (5×10^4 cells) and incubated at 37° C. The wells were aspirated and washed three times with 400 μl PBS (pH 7.2) containing 0.1% BSA. Wells were detached and counted in 5 ml Beckman Ready Protein. Blanks were not coated with protein but were blocked with BSA as described above.

fibrinogen = assay: Adhesion of B16F1 cells to fibrinogen; format: cell-based; settings: 24 hours
Protocol: as §4, §5, §6, §7

[3] = tested on: B16 murine melanoma cells; settings: cells treated in vitro, intravenous injection into mice; cited from earlier work
[4] = tested on: Lewis lung carcinoma cells; settings: cited from earlier work
[5] = cells exposed to drugs for 24 hours, nodules counted three weeks later

Cc1[nH]c(=O)oc1-c1ccncc1 [Compound 2, 4methyl-5-(4-pyridinyl)-2(3H)-oxazolone]
pIC50 (cytosolic PKC): 3.30 | pIC50 (membrane-associated PKC): 3.60 | pIC50 (B16F1 cells; [5]): 4.44

CCc1[nH]c(=O)oc1-c1ccnc2ccccc12 [Compound 3, 4ethyl-5-(4-quinolinyl)-2(3H)-oxazolone]
pIC50 (cytosolic PKC): 4.33 | pIC50 (membrane-associated PKC): 4.82 | pIC50 (B16F1 cells; [5]): 4.17

CCCc1[nH]c(=O)oc1-c1ccnc2ccccc12 [Compound 4, 4propyl-5-(4-quinolinyl)-2(3H)-oxazolone]
pIC50 (cytosolic PKC): 4.21 | pIC50 (membrane-associated PKC): 4.03

CNc1ccc2oc(C[C@H]3O[C@@]4(CC[C@H]3C)O[C@H]([C@H](C)C(=O)c3ccc[nH]3)[C@H](C)C[C@H]4C)nc2c1C(=O)O [Compound A23187]
metastasis from the primary tumor [1]: resulted in metastasis from the primary tumor

CC1CNCCN1S(=O)(=O)c1cccc2cnccc12 (stereo not shown) [Compound H-7, reference compound]
adherence to HUVEC [2]: Neither H-7 nor staurosporine inhibited adherence | adhesion to collagen IV (collagen IV): Neither H-7 nor staurosporine inhibited adherence | pIC50 (cytosolic PKC): 3.74 | adhesion to fibrinogen (fibrinogen): Neither H-7 nor staurosporine inhibited adherence | pIC50 (membrane-associated PKC): 4.15 | pIC50 (B16F1 cells): 4.90

CCCCCCCCCCCCCC(=O)O[C@@H]1[C@@H](C)[C@@]2(O)[C@@H](C=C(CO)C[C@]3(O)C(=O)C(C)=C[C@@H]23)[C@@H]2C(C)(C)[C@]12OC(C)=O [PMA, phorbol-12-myristate-13-acetate]
number of metastatic foci in lungs [3]: increased numbers of metastatic foci in lungs | metastasis from the primary tumor [1]: resulted in metastasis from the primary tumor | adhesion to endothelial cells [4]: enhancement of adhesion to endothelial cells

CN[C@@H]1C[C@H]2O[C@@](C)([C@@H]1OC)n1c3ccccc3c3c4c(c5c6ccccc6n2c5c31)C(=O)NC4 [Staurosporine, reference compound]
adherence to HUVEC [2]: Neither H-7 nor staurosporine inhibited adherence | adhesion to collagen IV (collagen IV): Neither H-7 nor staurosporine inhibited adherence | pIC50 (cytosolic PKC): 7.72 | adhesion to fibrinogen (fibrinogen): Neither H-7 nor staurosporine inhibited adherence
